TGI and GI50 data for 14 compounds are collected here from PubChem BioAssay (NCI).

Some test systems named below: SNB-19 CNS; KM12 colon; LOX IMVI melanoma; A549 NSCLC; HCT-15 colon; SK-OV-3 ovarian; SN12C renal; SK-MEL-28 melanoma; HOP-62 NSCLC; SR leukemia.
Holding throughout (assay): inhibition of tumour cell growth, NCI panel, 48 h

The structures appear in SMILES notation.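 The compound was tested at five concentrations on cells cultured in 96-well plates, with a 48-hour exposure period. At the GI50, growth is halved. TGI denotes the concentration required for complete inhibition of growth.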 Bounds are passed on as bounds.

Regarding `Cc1cccc(C)c1NC(=O)CCC/C(CC(=O)c1ccc(F)cc1)=N\NC(=O)C(=O)NN`, the TGI in the assay on SNB-19 CNS, with KM12 colon, in the assay with LOX IMVI melanoma, in the assay on A549 NSCLC, in the assay on HCT-15 colon and with SK-OV-3 ovarian was above 100 µM each time. Also, the TGI with SN12C renal and with SK-MEL-28 melanoma was above 100 µM in each case.
In the case of `Nc1ccc(-c2cc(C(=O)Nc3nccs3)[nH]c(=S)n2)cc1`, the TGI in the assay on SNB-19 CNS, in the assay with KM12 colon, in the assay with LOX IMVI melanoma, in the assay on A549 NSCLC, in the assay on HCT-15 colon and in the assay with SK-OV-3 ovarian was above 100 µM in each case. The TGI in the assay with SN12C renal and in the assay on SK-MEL-28 melanoma was above 100 µM throughout.
`Cc1ccc(S(=O)(=O)N/N=C(\c2nc3ccc([N+](=O)[O-])cc3[nH]c2=O)C(O)c2ccc([N+](=O)[O-])cc2)cc1` (stereo not drawn): the TGI with SNB-19 CNS, in the assay with LOX IMVI melanoma, in the assay with A549 NSCLC, in the assay on HCT-15 colon, in the assay on SK-OV-3 ovarian and in the assay on SN12C renal was above 100 µM in each case. For the same compound, the TGI with SK-MEL-28 melanoma and in the assay with HOP-62 NSCLC was above 100 µM in each case.
For the compound `O=C(Cc1nc2sc3c(c2c(=O)[nH]1)CCCC3)Nc1ccccc1`, the TGI with SNB-19 CNS, with KM12 colon, with LOX IMVI melanoma, in the assay with A549 NSCLC, in the assay on HCT-15 colon and in the assay on SK-OV-3 ovarian was above 100 µM throughout. The TGI in the assay with SN12C renal, in the assay on SK-MEL-28 melanoma and in the assay on HOP-62 NSCLC was above 100 µM throughout.
As for `CCC/C=C\C=C\C1(NS(=O)(=O)c2ccc(C)cc2)CCC(C(C)(C)C)CC1` (stereo not drawn), the TGI is above 100 µM with SNB-19 CNS; 31.9 µM in the assay with KM12 colon; 14.8 µM in the assay on SR leukemia; 38.6 µM in the assay on A549 NSCLC; 43.8 µM in the assay with HCT-15 colon; 65.2 µM in the assay with SK-OV-3 ovarian. For the same compound, the TGI amounted to 23.5 µM in the assay on SN12C renal and 56.7 µM in the assay on HOP-62 NSCLC.
On to `O=C1CC(c2c(-c3ccccc3)[nH]c3ccccc23)C(=O)N1c1ccccc1` (stereo not drawn), for which the TGI in the assay with KM12 colon is above 100 µM; in the assay on A549 NSCLC, above 100 µM; in the assay with HCT-15 colon it was above 100 µM; with SK-OV-3 ovarian it was above 100 µM; in the assay on SK-MEL-28 melanoma, above 100 µM; with HOP-62 NSCLC, 94 µM.
For the compound `C/C(=N\NC(=O)C[N+](C)(C)C)c1sc(-c2cccnc2)nc1C`, the TGI in the assay on KM12 colon, in the assay on LOX IMVI melanoma, with A549 NSCLC, with SK-OV-3 ovarian, in the assay on SK-MEL-28 melanoma and in the assay with HOP-62 NSCLC was above 100 µM each time.
Consider `S=c1o[nH]c(-c2ccccc2)c1C=Nc1ccccc1`, for which the TGI in the assay with SNB-19 CNS, with KM12 colon, in the assay on LOX IMVI melanoma, in the assay on A549 NSCLC, in the assay on HCT-15 colon and with SK-OV-3 ovarian was above 100 µM in each case. In addition, the TGI in the assay on SN12C renal and in the assay with SK-MEL-28 melanoma was above 100 µM each time.
As for `CCOC(=O)C1C=C2O[C@@H]3OC4(CCCCC4)O[C@@H]3C2C2C(=O)CCC(=O)[C@@]12C(=O)OC` (stereo partly drawn), the TGI with SNB-19 CNS, in the assay on KM12 colon, in the assay on LOX IMVI melanoma, with A549 NSCLC, in the assay on HCT-15 colon and in the assay on SK-OV-3 ovarian was above 100 µM throughout. Further, the TGI in the assay with SN12C renal, in the assay on SK-MEL-28 melanoma and with HOP-62 NSCLC was above 100 µM throughout.
Take `Cc1ccc(S(=O)(=O)NC(=O)NCCc2ccccc2)cc1`: the TGI in the assay with SNB-19 CNS, with KM12 colon, with LOX IMVI melanoma, in the assay with A549 NSCLC, in the assay on SK-OV-3 ovarian and in the assay with SN12C renal was above 100 µM in each case. The TGI with SK-MEL-28 melanoma and in the assay with HOP-62 NSCLC was above 100 µM throughout.
With `O=C1N2Cc3c4ccc5c3CN3C(=O)N6Cc7c(ccc(c7CN1C6(c1ccccc1)C23c1ccccc1)OCCOCCOc1cc(Br)c(Br)cc1OCCOCCO4)OCCOCCOc1cc(Br)c(Br)cc1OCCOCCO5` (stereo not drawn), the TGI was above 100 µM in the assay on SNB-19 CNS; above 100 µM with KM12 colon; above 100 µM in the assay on SR leukemia; above 100 µM in the assay on A549 NSCLC; 67.7 µM with HCT-15 colon; above 100 µM in the assay on SK-OV-3 ovarian. In addition, the TGI in the assay with SN12C renal, in the assay with SK-MEL-28 melanoma and in the assay with HOP-62 NSCLC was above 100 µM throughout.
Consider `O=C(Nc1cccc(-n2cc(-c3ccncc3)c(-c3ccc(O)c(Cl)c3)n2)c1)c1ccc2c(c1)OCCO2`, for which the GI50 is above 100 µM in the assay on SNB-19 CNS; 4.83 µM in the assay on KM12 colon; 4.77 µM in the assay with LOX IMVI melanoma; 2.46 µM in the assay on SR leukemia; 5.85 µM in the assay with A549 NSCLC; 3.7 µM in the assay with HCT-15 colon. Moreover, the GI50 in the assay on SK-OV-3 ovarian was above 100 µM; in the assay with SN12C renal it was 55.7 µM; in the assay with HOP-62 NSCLC it was above 100 µM. In addition, the TGI with SNB-19 CNS, with KM12 colon, in the assay with LOX IMVI melanoma, with SR leukemia, in the assay with A549 NSCLC and in the assay on HCT-15 colon was above 100 µM throughout. Besides, the TGI in the assay with SK-OV-3 ovarian, in the assay with SN12C renal and in the assay with HOP-62 NSCLC was above 100 µM in each case.
As for `O=[P+](O)c1ccccn1`, the TGI with SNB-19 CNS, with KM12 colon, with LOX IMVI melanoma, in the assay with A549 NSCLC, in the assay with HCT-15 colon and in the assay on SK-OV-3 ovarian was above 100 µM throughout. Besides, the TGI in the assay with SN12C renal, in the assay on SK-MEL-28 melanoma and in the assay with HOP-62 NSCLC was above 100 µM throughout.
For `O=c1c2cc(Br)cc(Br)c2nc(CCCl)n1-c1ccc(O)c([N+](=O)[O-])c1`, the TGI in the assay on SNB-19 CNS worked out at 38.2 µM; with KM12 colon it was 33.7 µM; in the assay with SR leukemia it was 65.4 µM; in the assay on A549 NSCLC, 31.7 µM; with HCT-15 colon, 38.1 µM; with SK-OV-3 ovarian, 29.5 µM. Further, the values for the TGI in the assay with SN12C renal, in the assay with SK-MEL-28 melanoma and in the assay on HOP-62 NSCLC were 31.8 µM, 35.4 µM and 33 µM, respectively.
